Experimental data as given in PubChem BioAssay (NCI).
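A five-concentration, 48-hour dose response in 96-well plates underlies each endpoint, interpolated linearly between surrounding concentrations. The concentration for full growth arrest is given as TGI.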

How the values were obtained:
Assay in all cases: DTP human tumour cell line panel, 48 h
COLO 205 colon = system: COLO 205 colon
EKVX NSCLC = system: EKVX NSCLC
HCC-2998 colon = system: HCC-2998 colon
HCT-116 colon = system: HCT-116 colon
HCT-15 colon = system: HCT-15 colon
HOP-62 NSCLC = system: HOP-62 NSCLC
IGROV1 ovarian = system: IGROV1 ovarian
K-562 leukemia = system: K-562 leukemia
MALME-3M melanoma = system: MALME-3M melanoma
NCI-H226 lung = system: NCI-H226 lung
NCI-H460 lung = system: NCI-H460 lung
OVCAR-3 ovarian = system: OVCAR-3 ovarian
SF-268 CNS = system: SF-268 CNS
SF-295 CNS = system: SF-295 CNS
SK-MEL-2 melanoma = system: SK-MEL-2 melanoma
SNB-75 CNS = system: SNB-75 CNS
U251 CNS = system: U251 CNS
MDA-N = system: MDA-N
NCI-H522 lung = system: NCI-H522 lung
T-47D breast = system: T-47D breast

| SMILES | TGI (COLO 205 colon) [µM] | TGI (EKVX NSCLC) [µM] | TGI (HCC-2998 colon) [µM] | TGI (HCT-116 colon) [µM] | TGI (HCT-15 colon) [µM] | TGI (HOP-62 NSCLC) [µM] | TGI (IGROV1 ovarian) [µM] | TGI (K-562 leukemia) [µM] | TGI (MALME-3M melanoma) [µM] | TGI (NCI-H226 lung) [µM] | TGI (NCI-H460 lung) [µM] | TGI (OVCAR-3 ovarian) [µM] | TGI (SF-268 CNS) [µM] | TGI (SF-295 CNS) [µM] | TGI (SK-MEL-2 melanoma) [µM] | TGI (SNB-75 CNS) [µM] | TGI (U251 CNS) [µM] | TGI (MDA-N) [µM] | TGI (NCI-H522 lung) [µM] | TGI (T-47D breast) [µM] |
| --- | --- | --- | --- | --- | --- | --- | --- | --- | --- | --- | --- | --- | --- | --- | --- | --- | --- | --- | --- | --- |
| CC(=O)N(/N=C\c1ccc([N+](=O)[O-])cc1)c1ccccc1 | > 100 | > 100 | > 100 | > 100 | > 100 | > 100 | > 100 | > 100 | > 100 | > 100 | > 100 | > 100 | > 100 | > 100 | > 100 | > 100 | > 100 |  |  |  |
| N#Cc1cc2c(n(C3OC(CO)C(O)C(O)C3O)c1=S)CCCCC2 (stereo not drawn) | > 100 |  | > 100 | > 100 | > 100 | > 100 | > 100 | > 100 | > 100 | > 100 | > 100 | > 100 | > 100 | > 100 | > 100 | > 100 | > 100 | > 100 | > 100 |  |
| CNC(=S)NNC(=O)c1c(C)nc2sccn12 | > 100 | > 100 | > 100 | > 100 | > 100 | > 100 | > 100 | > 100 | > 100 | > 100 | > 100 | > 100 | > 100 | > 100 | > 100 |  | > 100 |  | > 100 |  |
| O=C(CC(=O)C(=O)CC(=O)OCc1ccccc1)OCc1ccccc1 | > 100 | > 100 | > 100 | > 100 | > 100 | > 100 | > 100 | > 100 | > 100 |  |  |  | > 100 |  | > 100 | > 100 | > 100 |  | > 100 |  |
| OCC1C(O)C(O)[C@@H]2SCCN12 (stereo partly drawn) | > 100 | > 100 | > 100 | > 100 | > 100 | > 100 | > 100 | > 100 | > 100 | > 100 | > 100 | > 100 | > 100 | > 100 | > 100 | > 100 | > 100 |  | > 100 | > 100 |
| CC(C)CC(=O)N1CCN(C(=O)CC(C)C)c2ccccc21 | > 100 | > 100 | > 100 | > 100 |  | > 100 | > 100 | > 100 | > 100 |  | > 100 | > 100 | > 100 | > 100 | > 100 | > 100 | > 100 |  | > 100 |  |
| O=C1CCCCC1C1(O)C(=O)Nc2cc(F)ccc21 (stereo not drawn) | > 100 | > 100 | > 100 | > 100 | > 100 | > 100 | > 100 | > 100 | > 100 | > 100 | > 100 |  | > 100 | > 100 | > 100 | > 100 | > 100 |  | > 100 |  |
| Cc1cc(=O)[nH]c(CNC(=O)c2cccc3ccccc23)n1 | > 100 | > 100 | > 100 | > 100 | > 100 | > 100 | > 100 | > 100 | > 100 | > 100 | > 100 | > 100 | > 100 | > 100 |  | > 100 | > 100 |  | > 100 |  |
| CC(=O)NC(ON1C(=O)COc2ccccc21)C(Cl)(Cl)Cl (stereo not drawn) | > 100 |  | > 100 | > 100 | > 100 | > 100 | > 100 | > 100 | > 100 | 88.1 | > 100 | > 100 | > 100 | > 100 | > 100 | > 100 | > 100 |  | > 100 |  |
| NS(=O)(=O)c1cc(S(N)(=O)=O)c(NC(=O)Nc2ccc(Cl)c(Cl)c2)c(Cl)c1Cl | > 100 | > 100 | > 100 | > 100 | > 100 |  | > 100 | > 100 |  | > 100 | > 100 | > 100 | > 100 | > 100 | > 100 |  | > 100 | > 100 | > 100 |  |
| COC(=O)C(CCC1(C)OCCO1)C(C)=O (stereo not drawn) | > 100 | > 100 | > 100 | > 100 | > 100 | > 100 | > 100 | > 100 | > 100 | > 100 | > 100 | > 100 | > 100 | > 100 | > 100 | > 100 | > 100 |  | > 100 |  |
| CC(C)=C1C(=O)C[C@]2(C)C/C=C(\C)CC/C=C(\C)CC[C@@H]12 | 16.6 | 32.5 | 14.9 | 15.9 | 15.4 | 18.5 | 19.4 | 13.6 |  | 16 |  | 18.1 | 18 | 31.3 | 15.8 | 20.2 | 14.8 |  | 13.9 | > 50 |
| CSc1nc2nc(C)c(C)nc2c(=O)[nH]1 | > 100 | > 100 | > 100 | > 100 | > 100 | > 100 | > 100 | > 100 | > 100 |  | > 100 | > 100 | > 100 | > 100 | > 100 | > 100 | > 100 |  | > 100 |  |
| Nn1c(-c2ccccc2Nc2ccccc2-c2n[nH]c(=S)n2N)n[nH]c1=S | > 50 | > 50 | > 50 | > 50 | > 50 | > 50 | > 50 | > 50 | > 50 | > 50 | > 50 | > 50 | > 50 | > 50 | > 50 | > 50 | > 50 |  | > 50 |  |
